Measured values from US7090853B2, “Noscapine derivatives as adjuvant compositions and methods of use thereof” (Emory University, priority 1999, dated 2006).
Entries after “also recorded” stand apart in the source; their conditions may differ.

Key:
[1] = molecular target: T1, bovine brain tubulin (Bos taurus, UniProt P81947+Q6B856); assay: Fluorescence titration of tubulin binding (Scatchard plot)
Procedure: (§1) Phosphocellulose purified bovine brain tubulin was employed throughout these biophysical experiments. Fluorescence titration for determining binding constants was performed according to Peyrot, V. et al., Biochemistry 31, 11125 (1992). […], at room temperature, 2 μM tubulin in 100 mM PIPES, 2 mM EGTA, 1 mM MgCl2 was excited at 278 nm, and the fluorescence emission spectra were recorded with bandwidths […]. The fluorescence emission intensity of noscapine at this excitation wavelength was negligible and at the concentration of noscapine used it gave no appreciable inner filter effect. The concentration of noscapine was raised in increments of 0.5 μM, until the decrease in the fluorescence intensity was saturated. The value of the dissociation constant and the number of sites were obtained from Scatchard plots using the equation, r/[L]free=n/K^d−r/Kd, where r is the ratio of the concentration of bound ligand to the total protein concentration and n is the number of binding sites. […] Microtubule assembly was recorded on a spectrophotometer with thermocontroler, The cuvettes (0.4 cm path) containing 100 mM PIPES, 2 mM EGTA, 1 mM MgCl2 and 1 mM GTP (G-PEM buffer), and 20 μM noscapine/DMSO were kept at room temperature before addition of tubulin and shifting to 37° C. […] The assembly was monitored by measuring the changes in turbidity at […]. intervals. […]

[2] = molecular target: T1, bovine brain tubulin; assay: Microtubule assembly, turbidity at 350 nm; type: biochemical; conditions: 20 μM noscapine, G-PEM buffer, 37° C.
Procedure: as §1

[3] = test system: lymphocyte cells; assay: Apoptosis: oligonucleosomal DNA fragmentation, DAPI staining and nick end labeling; type: cell-based; conditions: 20 μM Noscapine, 0 to 24 hr
Procedure: Oligonucleosomal fragmentation of genomic DNA was determined according to Walton, M. I. et. al., Cancer. Res. 53, 1853 (1993). An aliquot of 3.3×10^6 cells in 10 ml medium was incubated with 20 μM Noscapine ([…] DMSO solution) for different time periods ranging from 0 to 24 hr. At the end of incubation, cells were pelleted and washed twice with ice cold PBS, and lysed in 250 μl 1% (v/v) NP 40 detergent containing 0.5 mg/ml proteinase K in PBS solution on ice for 60 min. Samples were centrifuged, and the supernatants were removed and incubated with 5 μl 10 mg/ml RNase A at 37° C. for 40 min. An aliquot of 1 ml anhydrous ethanol was added, tubes were placed at −20° C. for 20 min., then centrifuged to pellet DNA. After the samples were dry, the same amount of DNA (10 μg) was electrophoresed at 80V for 3 hr. through a 2% agarose gel containing ethidium bromide in TAB buffer. DNA bands were visualized under […]. […]
Morphological changes in the nuclear chromatin of cells undergoing apoptosis were detected by staining with 4′,6-diamidino-2-phenylindole (DAPI). […] Following 15 min. incubation at room temperature, a 10 μl aliquot was placed on a glass slide, and 400 cells per slide were scored for the incidence of apoptotic chromatin changes with a fluorescence microscope. […] After the slides were rinsed with PBS for another 3 times, coverslips were mounted and analyzed with a light microscope.

[4] = test system: solid lymphoid tumors; assay: Apoptosis in solid lymphoid tumors induced in mice (H&E microscopy); type: in vivo; conditions: Haemotoxline and Eosine stained cells
[5] = test system: E.G7-OVA tumor cells; assay: Survival and tumor regression of E.G7-OVA tumor-bearing mice, noscapine in drinking water; type: in vivo, C57BL/6 mice
Procedure: C57BL/6 mice were injected s.c. with 2×10^6 E.G7-OVA tumor cells. Three days later, two groups received the indicated dose of noscapine in their drinking water. There were 5 mice/group. Untreated mice survived from 6 to 7 weeks after tumor inoculation. In marked contrast, the majority of the mice treated with 1.5 or 3.0 mg/ml Noscapine survived for greater than 16 weeks when the experiment was terminated.
FIGS. 3A–3I show B6 mice were injected subcutaneously with 2×10^6 E.G7-OVA tumor cells and after three days half of the mice were treated continuously with 1.5 or 3.0 mg noscapine/ml of drinking water. All of the untreated mice developed tumors and were euthanized after three weeks. […] Normal B6 mice (A–C) and mice treated for 3 months with noscapine (D–F) were euthanized.
To test whether E.G7-OVA tumor induced tolerance, tumors were ablated by treating the mice with noscapine in the drinking water beginning three days after tumor transplantation. Tumors grew in all mice that had received E.G7-OVA without noscapine.

[6] = test system: OVA; assay: Immune response to OVA in CFA in mice on oral noscapine; type: in vivo, B6 mice
Procedure: On day 0 all mice were injected with 200 μg OVA in CFA in the foot pad. Mice were bled individually on day 18 and their sera tested for antibody to OVA by ELISA (FIG. 5A). The mice were sacrificed on day 21 and their spleen cells cultured with E.G7-OVA for 6 days and their cytolytic activity measured with ^51Cr labeled cells (FIG. 5B).
The inventors believe that the damage caused to the mitotic apparatus of dividing cells must be repaired by normal cells but not the tumor cells at the tumor suppressive doses. Alternatively, the tumor suppressive effects of Noscapine may be unrelated to the anti-mitotic effect of the drug.

[7] = test system: human breast tumors; conditions: nude mice; cited from earlier work

T1 sequence (P81947 whole entry): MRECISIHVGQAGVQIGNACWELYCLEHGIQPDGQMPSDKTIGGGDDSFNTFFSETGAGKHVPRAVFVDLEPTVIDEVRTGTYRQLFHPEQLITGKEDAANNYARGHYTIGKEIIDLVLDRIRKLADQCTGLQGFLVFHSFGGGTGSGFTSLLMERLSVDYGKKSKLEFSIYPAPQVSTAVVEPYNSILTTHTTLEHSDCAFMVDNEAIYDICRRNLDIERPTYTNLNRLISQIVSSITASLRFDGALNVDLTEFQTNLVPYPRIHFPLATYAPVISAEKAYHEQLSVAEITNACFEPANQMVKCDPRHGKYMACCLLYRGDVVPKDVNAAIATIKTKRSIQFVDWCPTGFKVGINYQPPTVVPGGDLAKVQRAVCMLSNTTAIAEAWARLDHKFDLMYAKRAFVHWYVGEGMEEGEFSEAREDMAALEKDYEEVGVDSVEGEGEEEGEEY
T1 sequence (Q6B856 whole entry): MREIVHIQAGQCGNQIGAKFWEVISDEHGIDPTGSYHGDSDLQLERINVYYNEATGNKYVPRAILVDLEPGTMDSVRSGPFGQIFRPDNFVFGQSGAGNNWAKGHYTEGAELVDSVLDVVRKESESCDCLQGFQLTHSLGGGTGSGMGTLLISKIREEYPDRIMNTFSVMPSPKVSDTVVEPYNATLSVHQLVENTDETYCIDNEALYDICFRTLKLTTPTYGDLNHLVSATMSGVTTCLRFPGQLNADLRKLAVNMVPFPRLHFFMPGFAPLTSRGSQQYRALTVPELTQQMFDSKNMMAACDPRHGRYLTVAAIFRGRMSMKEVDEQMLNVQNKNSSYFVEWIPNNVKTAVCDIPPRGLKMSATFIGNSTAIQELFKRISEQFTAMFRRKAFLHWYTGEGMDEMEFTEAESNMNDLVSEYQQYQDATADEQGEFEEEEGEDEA

COc1ccc2c(c1OC)C(=O)O[C@@H]2[C@H]1c2c(cc3c(c2OC)OCO3)CCN1C [Noscapine]
stoichiometry ([1]; Scatchard plot): 0.95±0.02 noscapine molecule per complex of tubulin subunit
quenching of tubulin fluorescence ([1]; excitation 278 nm): fluorescence quenching of tubulin
tubulin assembly (absorbance at 350 nm) [2]: promotes tubulin assembly
DNA degradation (gel electrophoresis of fragmented genomic DNA, staining) [3]: progressive DNA degradation with increasing time of noscapine treatment
apoptotic morphologies in tumor cells [4]: many cells in noscapine treated mice with apoptotic morphologies
tumor regression ([5]; 1.5 or 3.0 mg noscapine/ml of drinking water, continuous): disappeared and did not return during four months of continuous treatment; also recorded: majority of tumors in mice treated with noscapine regress
survival after tumor inoculation ([5]; majority of mice, 1.5 or 3.0 mg/ml in drinking water from day 3, experiment terminated at 16 weeks): greater than 16 weeks
immune response to OVA in CFA ([6]; 1.5 mg noscapine/ml drinking water from day -7): no detectable adverse effect
primary antibody response ([6]; oral noscapine, ELISA day 18): did not inhibit
CTL response ([6]; oral noscapine, spleen cells day 21, 51Cr labeled cells): did not inhibit
regression of human breast tumors [7]: caused regression
